# Reference: the supplement of paper PMC6045584
# ± gives the standard deviation of the averaged measurements.
# Compound: CS(=O)(=O)c1ccc(C(=O)Nc2ccc(Cl)c(-c3ccccn3)c2)c(Cl)c1 [VISMODEGIB]
# Test: surviving fraction relative to DMSO-only wells; higher = less growth inhibition
# Conditions: 0.5 nM; exposure time: 5 days
# Summary of the method: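 After seeding at 250–500 cells per well in 384-well plates and a 24-hour wait, log-phase tumour cell lines were exposed without interruption for five days to inhibitors at 0.5, 1, 5, 10, 50, 100, 500 and 1000 nM. CellTiter-Glo luminescence was recorded after 10 minutes at room temperature. Viability is reported as surviving fraction, the luminescence normalised to the median of DMSO-only wells.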
row,Test System,surviving fraction
1,HMLE3 BREAST,0.911 ± 0.11
2,HS578T BREAST,0.936 ± 0.14
3,HMT3552 BREAST,1.07
4,HCC38 BREAST,0.743 ± 0.17
5,HS57T BREAST,0.986 ± 0.066
6,G292 BONE,0.963 ± 0.032
7,HCC70 BREAST,0.977 ± 0.041

# Same assay, conditions: 1 nM; exposure time: 5 days
row,Test System,surviving fraction
1,HMLE3 BREAST,0.929 ± 0.037
2,HS578T BREAST,0.934 ± 0.077
3,HMT3552 BREAST,1.02
4,HCC38 BREAST,0.928 ± 0.2
5,HS57T BREAST,0.987 ± 0.04
6,G292 BONE,0.989 ± 0.018
7,HCC70 BREAST,0.964 ± 0.067

# Same assay, conditions: 5 nM; exposure time: 5 days
row,Test System,surviving fraction
1,HMLE3 BREAST,1 ± 0.03
2,HS578T BREAST,1.05 ± 0.062
3,HMT3552 BREAST,1.05
4,HCC38 BREAST,0.895 ± 0.31
5,HS57T BREAST,1.01 ± 0.062
6,G292 BONE,1.01 ± 0.057
7,HCC70 BREAST,1.14 ± 0.055

# Same assay, conditions: 10 nM; exposure time: 5 days
row,Test System,surviving fraction
1,HMLE3 BREAST,0.949 ± 0.013
2,HS578T BREAST,0.964 ± 0.069
3,HMT3552 BREAST,1.06
4,HCC38 BREAST,1.12 ± 0.38
5,HS57T BREAST,1.04 ± 0.055
6,G292 BONE,0.96 ± 0.016
7,HCC70 BREAST,1.11 ± 0.012

# Same assay, conditions: 50 nM; exposure time: 5 days
row,Test System,surviving fraction
1,HMLE3 BREAST,0.882 ± 0.096
2,HS578T BREAST,0.871 ± 0.11
3,HMT3552 BREAST,0.804
4,HCC38 BREAST,0.668 ± 0.12
5,HS57T BREAST,1.04 ± 0.028
6,G292 BONE,0.959 ± 0.049
7,HCC70 BREAST,1.11 ± 0.084

# Same assay, conditions: 100 nM; exposure time: 5 days
row,Test System,surviving fraction
1,HMLE3 BREAST,0.969 ± 0.038
2,HS578T BREAST,0.881 ± 0.051
3,HMT3552 BREAST,1.16
4,HCC38 BREAST,0.677 ± 0.24
5,HS57T BREAST,0.959 ± 0.038
6,G292 BONE,0.975 ± 0.019
7,HCC70 BREAST,1.12 ± 0.048

# Same assay, conditions: 500 nM; exposure time: 5 days
row,Test System,surviving fraction
1,HMLE3 BREAST,0.882 ± 0.15
2,HS578T BREAST,0.913 ± 0.15
3,HMT3552 BREAST,0.925
4,HCC38 BREAST,0.743 ± 0.24
5,HS57T BREAST,0.991 ± 0.037
6,G292 BONE,0.927 ± 0.061
7,HCC70 BREAST,1.04 ± 0.037

# Same assay, conditions: 1000 nM; exposure time: 5 days
row,Test System,surviving fraction
1,HMLE3 BREAST,0.893 ± 0.11
2,HS578T BREAST,0.983 ± 0.15
3,HMT3552 BREAST,0.937
4,HCC38 BREAST,0.609 ± 0.11
5,HS57T BREAST,0.978 ± 0.021
6,G292 BONE,0.932 ± 0.014
7,HCC70 BREAST,1.1 ± 0.026

# Compound: CN(C)CC[C@H](CSc1ccccc1)Nc1ccc(S(=O)(=O)NC(=O)c2ccc(N3CCN(Cc4ccccc4-c4ccc(Cl)cc4)CC3)cc2)cc1[N+](=O)[O-] [ABT-737]
# Test: area under dose-response curve of surviving fraction (unscaled, Aref=0) (surviving fraction x log10(nM)); higher = more resistant
# Conditions: exposure time: 5 days; dose range 0.5-1000 nM
# Summary of the method: (§1)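 Three screens per tumour cell line were run in 384-well plates at eight inhibitor concentrations from 0.5 to 1000 nM over five days. Surviving fractions, from CellTiter-Glo luminescence normalised to DMSO-only wells, were fitted with 3-parameter logistic curves in the drc R package. The reported area under the curve is the unscaled activity area. It spans log10 dose, and Aref is 0.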
row,Test System,area under dose-response curve
1,HMLE3 BREAST,3.75
2,HS578T BREAST,3.8
3,HMT3552 BREAST,3.5
4,CCK81 LARGE INTESTINE,2.64
5,G292 BONE,3.45
6,HCC70 BREAST,3.49

# Compound: CN1CC[C@H](c2c(O)cc(O)c3c(=O)cc(-c4ccccc4Cl)oc23)[C@H](O)C1 [FLAVOPIRIDOL]
# Test: as above
# Conditions: exposure time: 5 days; dose range 0.5-1000 nM
# Summary of the method: as §1
row,Test System,area under dose-response curve
1,HMLE3 BREAST,2.14
2,HS578T BREAST,2.13
3,HMT3552 BREAST,1.86
4,CCK81 LARGE INTESTINE,1.69
5,HCC38 BREAST,2.36
6,G292 BONE,2.14
7,HCC70 BREAST,2.16

# Compound: COc1cc2c(cc1O)CC[C@@H]1[C@@H]2CC[C@]2(C)[C@@H](O)CC[C@@H]12 [2-METHOXYESTRADIOL]
# Test: as above
# Conditions: exposure time: 5 days; dose range 0.5-1000 nM
# Summary of the method: as §1
row,Test System,area under dose-response curve
1,HMLE3 BREAST,3.23
2,HS578T BREAST,2.71
3,HMT3552 BREAST,2.95
4,CCK81 LARGE INTESTINE,2.32
5,G292 BONE,2.87
6,HCC70 BREAST,3.06

# Compound: CS(=O)(=O)CCNCc1ccc(-c2ccc3ncnc(Nc4ccc(OCc5cccc(F)c5)c(Cl)c4)c3c2)o1 [LAPATINIB]
# Test: as above
# Conditions: exposure time: 5 days; dose range 0.5-1000 nM
# Summary of the method: as §1
row,Test System,area under dose-response curve
1,HS578T BREAST,3.34
2,HMT3552 BREAST,3.24
3,CCK81 LARGE INTESTINE,1.95
4,HCC38 BREAST,3
5,G292 BONE,3.3
6,HCC70 BREAST,3.58

# Compound: Nc1ncn([C@H]2C[C@H](O)[C@@H](CO)O2)c(=O)n1 [DECITABINE]
# Test: as above
# Conditions: exposure time: 5 days; dose range 0.5-1000 nM
# Summary of the method: as §1
row,Test System,area under dose-response curve
1,HMLE3 BREAST,2.98
2,HS578T BREAST,2.99
3,HMT3552 BREAST,3.71
4,CCK81 LARGE INTESTINE,1.69
5,HCC38 BREAST,2.64
6,G292 BONE,2.61

# Compound: Oc1ccc(/C=C/c2cc(O)cc(O)c2)cc1 [RESVERATROL]
# Test: as above
# Conditions: exposure time: 5 days; dose range 0.5-1000 nM
# Summary of the method: as §1
row,Test System,area under dose-response curve
1,HMLE3 BREAST,3.42
2,HS578T BREAST,3.82
3,HMT3552 BREAST,3.64
4,CCK81 LARGE INTESTINE,2.47
5,G292 BONE,3.42
6,HCC70 BREAST,3.59
